Laboratory results: PubChem BioAssay AID256 (DTP/NCI, 2004)
Where “and” joins values, the source holds several entries; their conditions need not be identical. Equal values may be shown once. Inconclusive results and toxic doses are left out. How the source made its calls: active means survival T/C of 150% or more; inactive means T/C below 125% in these data.

Tested on: CD2F1 mice, L1210 leukemia ip, survival T/C
Assay: NCI In Vivo Anticancer Drug Screen. Data for tumor model L1210 Leukemia (intraperitoneal) in CD2F1 (CDF1) mice
Conditions: endpoint: mean survival time, higher = longer survival
Summary of the method: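 Read-out first: treated-group measurement over vehicle-control measurement, expressed as a ratio. Animals bore a transplanted tumor line and were dosed with compound or vehicle.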

[1] = dose: 100.0 mg/kg/injection, schedule: Q04DX002 (ip), vehicle: saline with Tween-80
[2] = dose: 200.0 mg/kg/injection, schedule: Q04DX002 (ip), vehicle: saline with Tween-80
[3] = dose: 400.0 mg/kg/injection, schedule: Q04DX002 (ip), vehicle: saline with Tween-80
[4] = dose: 100.0 mg/kg/injection, schedule: Q01DX009 (ip), vehicle: saline
[5] = dose: 200.0 mg/kg/injection, schedule: Q01DX009 (ip), vehicle: saline

Measured: T/C

Nc1ccn(C2OC(COP(=O)(O)O)C(O)C2O)c(=O)n1 (configuration not stated)
inactive: dose: 64.0 mg/kg/injection, schedule: Q01DX001 (ip), vehicle: saline 121 % of control | dose: 128.0 mg/kg/injection, schedule: Q01DX001 (ip), vehicle: saline 117 % of control | dose: 128.0 mg/kg/injection, schedule: Q01DX001 (oral), vehicle: saline 106 % of control | dose: 128.0 mg/kg/injection, schedule: Q04DX003 (oral), vehicle: saline 120 % of control | dose: 256.0 mg/kg/injection, schedule: Q01DX001 (ip), vehicle: saline 112 % of control | dose: 256.0 mg/kg/injection, schedule: Q01DX001 (oral), vehicle: saline 107 % of control | dose: 256.0 mg/kg/injection, schedule: Q04DX003 (oral), vehicle: saline 121 % of control | dose: 512.0 mg/kg/injection, schedule: Q01DX001 (oral), vehicle: saline 109 % of control | dose: 1024.0 mg/kg/injection, schedule: Q01DX009 (oral), vehicle: saline 104 % of control
active: dose: 4.0 mg/kg/injection, schedule: Q03HX024 (ip), vehicle: saline 337 % of control | dose: 8.0 mg/kg/injection, schedule: Q01DX008 (ip), vehicle: saline 176 % of control | dose: 8.0 mg/kg/injection, schedule: Q03HX024 (ip), vehicle: saline 302 % of control | dose: 16.0 mg/kg/injection, schedule: Q01DX008 (ip), vehicle: saline 183 % of control | dose: 16.0 mg/kg/injection, schedule: Q01DX009 (ip), vehicle: saline 185 % of control | dose: 16.0 mg/kg/injection, schedule: Q03HX024 (ip), vehicle: saline 487 % of control | dose: 16.0 mg/kg/injection, schedule: Q03HX024 (oral), vehicle: saline 228 % of control | dose: 32.0 mg/kg/injection, schedule: Q01DX008 (ip), vehicle: saline 173 % of control | dose: 32.0 mg/kg/injection, schedule: Q01DX009 (ip), vehicle: saline 215 % of control | dose: 32.0 mg/kg/injection, schedule: Q03HX024 (ip), vehicle: saline 240 % of control | dose: 32.0 mg/kg/injection, schedule: Q03HX024 (oral), vehicle: saline 266 % of control | dose: 64.0 mg/kg/injection, schedule: Q01DX008 (ip), vehicle: saline 155 % of control | dose: 64.0 mg/kg/injection, schedule: Q01DX008 (oral), vehicle: saline 156 % of control | dose: 64.0 mg/kg/injection, schedule: Q01DX009 (ip), vehicle: saline 212 % of control | dose: 64.0 mg/kg/injection, schedule: Q03HX024 (oral), vehicle: saline 300 % of control | dose: 128.0 mg/kg/injection, schedule: Q01DX008 (oral), vehicle: saline 167 % of control | dose: 128.0 mg/kg/injection, schedule: Q01DX009 (oral), vehicle: saline 155 % of control | dose: 128.0 mg/kg/injection, schedule: Q03HX024 (oral), vehicle: saline 155 % of control | dose: 256.0 mg/kg/injection, schedule: Q01DX009 (oral), vehicle: saline 172 % of control | dose: 512.0 mg/kg/injection, schedule: Q01DX009 (oral), vehicle: saline 182 % of control | dose: 1024.0 mg/kg/injection, schedule: Q01DX001 (oral), vehicle: saline 155 % of control | dose: 1024.0 mg/kg/injection, schedule: Q04DX003 (oral), vehicle: saline 164 % of control

COC(C(=O)C(O)C(C)O)C1CC2C=C3C=C(OC4CC(OC5CC(O)C(OC)C(C)O5)C(OC(C)=O)C(C)O4)C(C)C(=O)C3=C(O)C2=C(O)C1OC1CC(OC2CC(OC3CC(C)(O)C(O)C(C)O3)C(O)C(C)O2)C(O)C(C)O1 (configuration not stated)
active: dose: 8.0 mg/kg/injection, schedule: Q01DX009 (ip), vehicle: saline with Tween-80 189 % of control
inactive: dose: 0.25 mg/kg/injection, schedule: Q01DX009 (ip), vehicle: saline with Tween-80 92 % of control and 101 % of control and 104 % of control | dose: 0.5 mg/kg/injection, schedule: Q01DX009 (ip), vehicle: saline with Tween-80 100 % of control and 101 % of control (2×) | dose: 0.5 mg/kg/injection, schedule: Q01DX009 (ip), vehicle: saline 124 % of control | dose: 1.0 mg/kg/injection, schedule: Q01DX009 (ip), vehicle: saline with Tween-80 101 % of control and 102 % of control | dose: 1.0 mg/kg/injection, schedule: Q01DX009 (ip), vehicle: saline 98 % of control | dose: 2.0 mg/kg/injection, schedule: Q01DX009 (ip), vehicle: saline with Tween-80 121 % of control and 108 % of control | dose: 4.0 mg/kg/injection, schedule: Q01DX009 (ip), vehicle: saline 115 % of control | dose: 8.0 mg/kg/injection, schedule: Q01DX009 (ip), vehicle: saline 124 % of control

COc1ccccc1NC(=O)Oc1ccc(Cl)cc1Cl
inactive: [1] 103 % of control | [2] 95 % of control

C[CH2][Sn](/[CH]=C/C=C/OC)([CH2]C)[CH2]C
inactive: dose: 0.04 mg/kg/injection, schedule: Q01DX009 (ip), vehicle: saline 101 % of control | dose: 0.09 mg/kg/injection, schedule: Q01DX009 (ip), vehicle: saline 101 % of control

O=c1[nH]cnc2ccccc12
inactive: [1] 96 % of control | [2] 101 % of control | [3] 104 % of control

O=C(Nc1ncccn1)Nc1cc([N+](=O)[O-])ccc1F
inactive: dose: 50.0 mg/kg/injection, schedule: Q01DX009 (ip), vehicle: Klucel (hydroxypropylcellulose) (HPC) 93 % of control | dose: 100.0 mg/kg/injection, schedule: Q01DX009 (ip), vehicle: Klucel (hydroxypropylcellulose) (HPC) 96 % of control | dose: 200.0 mg/kg/injection, schedule: Q01DX009 (ip), vehicle: Klucel (hydroxypropylcellulose) (HPC) 98 % of control

CC(C)CCCC(C)C1CCC2C3=CCC4CC(=O)CCC4(C)C3CCC21C (configuration not stated)
inactive: dose: 100.0 mg/kg/injection, schedule: Q04DX003 (ip), vehicle: saline with Tween-80 95 % of control | dose: 200.0 mg/kg/injection, schedule: Q04DX003 (ip), vehicle: saline with Tween-80 92 % of control | dose: 400.0 mg/kg/injection, schedule: Q04DX003 (ip), vehicle: saline with Tween-80 93 % of control

O=C(NC1=C(N2CC2)C(=O)C(NC(=O)OCCO)=C(N2CC2)C1=O)OCCO
inactive: dose: 0.18 mg/kg/injection, schedule: Q01DX009 (ip), vehicle: saline 109 % of control and 112 % of control | dose: 0.39 mg/kg/injection, schedule: Q01DX009 (ip), vehicle: saline 113 % of control and 104 % of control | dose: 0.75 mg/kg/injection, schedule: Q01DX009 (ip), vehicle: saline 117 % of control and 120 % of control

N#[N+]c1c(O)ccc2ccccc12
inactive: [1] 107 % of control | [2] 103 % of control | [3] 100 % of control

c1ccc([P+](c2ccccc2)(c2ccccc2)C2CCC2)cc1
inactive: dose: 9.4 mg/kg/injection, schedule: Q04DX003 (ip), vehicle: saline 97 % of control | dose: 18.8 mg/kg/injection, schedule: Q04DX003 (ip), vehicle: saline 102 % of control | dose: 37.5 mg/kg/injection, schedule: Q04DX003 (ip), vehicle: saline 102 % of control

N#Cc1c2ccccc2nn1C1OC(CO)C(O)C1O (configuration not stated)
inactive: dose: 100.0 mg/kg/injection, schedule: Q01DX005 (ip), vehicle: saline 109 % of control | dose: 200.0 mg/kg/injection, schedule: Q01DX005 (ip), vehicle: saline 98 % of control

N#CCCOCCC#N
inactive: [4] 100 % of control | [5] 98 % of control | dose: 400.0 mg/kg/injection, schedule: Q01DX009 (ip), vehicle: saline 102 % of control

COC(=O)C1C2CCC(COC(C)=O)(O2)C1C(=O)O (configuration not stated)
inactive: dose: 100.0 mg/kg/injection, schedule: Q01DX001 (ip), vehicle: saline with Tween-80 94 % of control | [4] 96 % of control | dose: 200.0 mg/kg/injection, schedule: Q01DX001 (ip), vehicle: saline with Tween-80 97 % of control | [5] 98 % of control | dose: 400.0 mg/kg/injection, schedule: Q01DX001 (ip), vehicle: saline with Tween-80 88 % of control

CN(C)CCNc1cccc2c1C(=O)c1cccc(NCCN(C)C)c1C2=O
inactive: dose: 1.88 mg/kg/injection, schedule: Q01DX009 (ip), vehicle: saline 94 % of control | dose: 3.75 mg/kg/injection, schedule: Q01DX009 (ip), vehicle: saline 96 % of control | dose: 7.5 mg/kg/injection, schedule: Q01DX009 (ip), vehicle: saline 104 % of control | dose: 15.0 mg/kg/injection, schedule: Q01DX009 (ip), vehicle: saline 104 % of control | dose: 30.0 mg/kg/injection, schedule: Q01DX009 (ip), vehicle: saline 104 % of control

CCCN(N=O)C(=O)Nc1ccc(C2CC(=O)N(C)C2=O)cc1 (configuration not stated)
inactive: dose: 12.5 mg/kg/injection, schedule: Q01DX001 (ip), vehicle: distilled water + Tween-80 112 % of control | dose: 25.0 mg/kg/injection, schedule: Q01DX001 (ip), vehicle: distilled water + Tween-80 111 % of control | dose: 50.0 mg/kg/injection, schedule: Q01DX001 (ip), vehicle: distilled water + Tween-80 109 % of control | dose: 100.0 mg/kg/injection, schedule: Q01DX001 (ip), vehicle: distilled water + Tween-80 101 % of control | dose: 200.0 mg/kg/injection, schedule: Q01DX001 (ip), vehicle: distilled water + Tween-80 107 % of control
